Test results as given in US5496809A, “Stable solutions of rebeccamycin analog” (priority 1989, dated 1996).
Structures can show the parent of a compound that is named as a salt. Where two headings read alike, the source gives them in different places.

Legend:
[1] = Solubility in water; type: physicochemical
Text: The compound is referred to in Kaneko et al U.S. Pat. No. 4,785,085 as 6-(2-diethylaminoethyl)rebeccmycin and its preparation is described in Example 1 of the patent and its effectiveness to inhibit growth of tumors in experimental animal systems is shown in Table 3 of the patent. […] Instead, it forms a suspension.
Besides being stable at room temperature, the solutions herein have enhanced solubility at low temperatures, e.g., refrigeration temperatures or cold conditions encountered during shipping or storage, etc.
Pharmaceutically acceptable acid components (c) which meet this solubility criterion include, for example, L-(+)-tartaric, D,L-malic, L-(-)-malic, citric, L-(+)-lactic, lactobionic, methanesulfonic, phosphoric, pyroglutamic, succinic and sulfuric acids. The most preferred acid of these is L-(+)-tartaric acid.

[2] = Long term physical stability of aqueous solutions at room temperature; type: physicochemical; details: one molar equivalent of acid; period less than 2 years at room temperature
Text: These unexpected physical instabilities include gelling, precipitation, cloudiness, and formation of liquid crystalline phases which render solutions of the crystalline salts unsuitable for practical use as, or for dilution with water to provide, injectable solutions.

[3] = test system: transplanted mouse leukemia P-338
Text: (§1) The screening procedures involved administration of test compound intraperitonially (IP) to CDF1 female mice (18 to 22 grams) infected with 1×10^6 ascites cells intraperitonially, and intravenously (IV) to CDF1 female mice (18 to 22 Grams) infected with 1×10 ascites cells intravenously. Drug therapy was started on Day 1 (date of implant) and consisted of 1 injection per day for 5 successive days. […] Mitomycin C is included for comparison purposes.

[4] = test system: transplanted mouse leukemia P-338; details: for % T/C (median survival time) / MST (median survival time): IV, 5 daily injections; for AWC (average weight change at Day 5): mouse, in vivo, iv
Text: as §1

[5] = IP, 4.8 mg/kg/inj, 5 daily injections

With `CCN(CC)CCN1C(=O)c2c(c3c4cccc(Cl)c4n([C@@H]4O[C@H](CO)[C@@H](OC)[C@H](O)[C@H]4O)c3c3[nH]c4c(Cl)cccc4c23)C1=O` the “solubility in water (in words)” value ([1]; added to water to form an aqueous injectable solution) was “not sufficiently soluble in water”.
With `CCN(CC)CCN1C(=O)c2c(c3c4cccc(Cl)c4n([C@@H]4O[C@H](CO)[C@@H](OC)[C@H](O)[C@H]4O)c3c3[nH]c4c(Cl)cccc4c23)C1=O` [hydrochloride salt] the “physical instability / shelf stability of solutions of acid addition salts (in words)” value [2] was “do not form aqueous solutions which are sufficiently shelf stable”.
For `CO[C@@]12[C@H](COC(N)=O)C3=C(C(=O)C(C)=C(N)C3=O)N1C[C@@H]1N[C@@H]12` [Mitomycin C], the “% T/C (median survival time)” value [3, 5] was 205%, the “MST (median survival time)” value [3, 5] was 20.5 days and the “AWC (average weight change at Day 5)” value ([3]; mouse, in vivo, ip, 4.8 mg/kg) was -0.6 Grams. For the same compound, the “% T/C (median survival time)” value ([4]; 1.6 mg/kg/inj) was 127%, the “MST (median survival time)” value ([4]; 1.6 mg/kg/inj) was 9.5 days and the “% T/C (median survival time)” value ([4]; 4.8 mg/kg/inj) was 160%. The “MST (median survival time)” value ([4]; 4.8 mg/kg/inj) was 12.0 days, the “AWC (average weight change at Day 5)” value ([4]; 1.6 mg/kg) was 0.4 Grams and the “AWC (average weight change at Day 5)” value ([4]; 4.8 mg/kg) was -0.1 Grams.
With `CCN(CC)CCN1C(=O)c2c(c3c4cccc(Cl)c4n([C@@H]4O[C@H](CO)[C@@H](OC)[C@H](O)[C@H]4O)c3c3[nH]c4c(Cl)cccc4c23)C1=O` [succinic] the solubility ([1]; water, salt formed from free base and a molar equivalent of acid, room temperature, read-out: solubility of acid addition salt in water) was > 25 mg/mL.
